Measurements from US8586607B2, “Compounds for the treatment of metabolic diseases” (Syddansk Universitet, priority 2008, dated 2013).

The molecules below were run against human GPR40 (Homo sapiens, UniProt O14842) (assay: Calcium mobilization assay, agonistic activity on GPR40). Conditions: cells expressing human GPR40 (hGPR40-1321N1).
Type: cell-based
Method: Cell Culture and Transfection. 1321N1 cells stably transfected with the human GPR40 were kindly provided by Euroscreen (Gosselies, Belgium). hGPR40-1321N1 cells were grown in Dulbecco's modified Eagle's medium supplemented with 10% (v/v) heat-inactivated fetal calf serum, 1% sodium pyruvate, 100 U/ml penicillin, 100 μg/ml streptomycin, and 400 μg/ml G418. 1321N1, HEK293 cells were grown in Dulbecco's modified Eagle's medium supplemented with 10% (v/v) heat-inactivated fetal calf serum, 1% sodium pyruvate, 100 U/ml penicillin, and 100 μg/ml streptomycin. All cells were kept at 37° C. in a 5% CO2 atmosphere. […]
Calcium Mobilization Assays. Calcium measurements were performed using a NOVOstar® microplate reader with a built-in pipetor (BMG LabTech, Offenburg, Germany). Cells were seeded in 96-well tissue-culture plates at a density of 30,000 cells per well. […] For testing of agonists, 20 μl of a ten-fold concentrated test compound solution was injected sequentially into separate wells and fluorescence was measured at 520 nm (bandwidth 25 nm) for 50 intervals of 0.4 seconds each. […] Concentration-inhibition curves in the presence of the test compounds were obtained by preincubating the cells with the compounds for 30 min at 37° C. prior to injection of agonist.

Sequence of human GPR40 (O14842 whole entry): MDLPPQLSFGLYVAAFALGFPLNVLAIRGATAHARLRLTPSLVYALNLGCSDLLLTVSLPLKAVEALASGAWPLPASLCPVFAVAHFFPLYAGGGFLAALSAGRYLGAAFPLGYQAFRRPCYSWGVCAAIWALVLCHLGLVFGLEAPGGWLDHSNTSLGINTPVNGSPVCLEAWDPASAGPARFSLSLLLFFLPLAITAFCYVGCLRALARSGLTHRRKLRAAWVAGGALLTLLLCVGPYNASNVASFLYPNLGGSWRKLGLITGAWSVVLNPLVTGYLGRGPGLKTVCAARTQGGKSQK

GPR40 agonistic activity (pEC50) | SMILES
6.35 | O=C(O)CCc1ccc(C#Cc2cccc(O)c2)cc1 [Example A52, 3-(4-((3-Hydroxyphenyl)ethynyl)phenyl)propanoic acid]
7.13 | Cc1cc(C)cc(C#Cc2ccc(CCC(=O)O)cc2)c1 [Example A15, 3-(4-((3,5-Dimethylphenyl)ethynyl)phenyl)propanoic acid]
7.04 | N#Cc1cccc(C#Cc2ccc(CCC(=O)O)cc2)c1 [Example A11, 3-(4-((3-Cyanophenyl)ethynyl)phenyl)propanoic acid]
6.66 | COc1ccccc1C#Cc1ccc(CCC(=O)O)cc1 [Example A51, 3-(4-((2-Methoxyphenyl)ethynyl)phenyl) acid]
7.05 | CCc1ccccc1C#Cc1ccc(CCC(=O)O)cc1 [Example A30, 3-(4-((2-Ethylphenyl)ethynyl)phenyl)propanoic acid]
5.95 | Cc1cc(C#Cc2ccc(CCC(=O)O)cc2)ccn1 [Example A32, 3-(4-((2-Methylpyridin-4-yl)ethynyl)phenyl)propanoic acid]
6.81 | C#Cc1cccc(C#Cc2ccc(CCC(=O)O)cc2)c1 [Example A18, 3-(4-((3-Ethynylphenyl)ethynyl)phenyl)propanoic acid]
6.00 | O=C(O)CCc1ccc(C#Cc2ccccc2-c2ccccc2)cc1 [Example A40, 3-(4-(Biphenyl-2-ylethynyl)phenyl)propanoic acid]
5.96 | Nc1cccc(C#Cc2ccc(CCC(=O)O)cc2)c1 [Example A17, 3-(4-((3-Aminophenyl)ethynyl)phenyl)propanoic acid]
7.02 | O=C(O)CCc1ccc(C#Cc2ccccc2)cc1 [Example A5, 3-(4-(Phenylethynyl)phenyl)propanoic acid]
6.73 | CC(=O)c1ccccc1C#Cc1ccc(CCC(=O)O)cc1 [Example A53, 3-(4-((2-Acetylphenyl)ethynyl)phenyl)propanoic acid]
7.06 | Cc1cccc(C#Cc2ccc(CCC(=O)O)cc2)c1C [Example A16, 3-(4-((2,3-Dimethylphenyl)ethynyl)phenyl)propanoic acid]
7.49 | Cc1ccccc1C#Cc1ccc(CCC(=O)O)cc1 [Example A9, 3-(4-(o-Tolylethynyl)phenyl)propanoic acid]
7.36 | Cc1cccc(C#Cc2ccc(CCC(=O)O)cc2)c1 [Example A7, 3-(4-(m-Tolylethynyl)phenyl)propanoic acid]
7.05 | O=C(O)CCc1ccc(C#Cc2cccc(C(F)(F)F)c2)cc1 [Example A14, 3-(4-((3-(Trifluoromethyl)phenyl)ethynyl)phenyl)propanoic acid]
4.96 | O=C(O)CCc1ccc(C#Cc2ncccc2[N+](=O)[O-])cc1 [Example A34, 3-(4-((3-Nitropyridin-2-yl)ethynyl)phenyl)propanoic acid]
6.38 | Cc1cccc(C)c1C#Cc1ccc(CCC(=O)O)cc1 [Example A50, 3-(4-((2,6-Dimethylphenyl)etnynyl)phenyl)propanoic acid]
6.05 | O=C(O)CCc1ccc(C#Cc2cccc(CO)c2)cc1 [Example A8, 3-(4-((3-(Hydroxymethyl)phenyl)ethynyl)phenyl)propanoic acid]
6.45 | O=Cc1cccc(C#Cc2ccc(CCC(=O)O)cc2)c1 [Example A13, 3-(4-((3-Formylphenyl)ethynyl)phenyl)propanoic acid]
7.37 | O=C(O)C1CC1c1ccc(C#Cc2cc(Cl)nc(Cl)c2)cc1 (stereo not drawn) [Example A35, 2-(4-((2,6-Dichloropyridin-4-yl)ethynyl)phenyl)cyclopropanecarboxylic acid]
4.79 | O=C(O)CCc1ccc(C#Cc2ccccc2O)cc1 [Example A58, 3-(4-((2-Hydroxyphenyl)ethynyl)phenyl)propanoic acid]
6.24 | O=C(O)CCc1ccc(C#Cc2ccccc2CO)cc1 [Example A59]

Same assay, conditions: cells expressing human GPR40 (hGPR40-1321N1), read-out: GPR40 agonistic activity (pEC50) (converted)

EC50 | SMILES
132000 nM | O=C(O)COc1ccc(C#Cc2ccc(O)cc2)cc1 [Example A25, 2-(4-((4-Hydroxyphenyl)ethynyl)phenoxy)ethanoic acid]
525 nM | O=C(O)CCc1ccc(C#Cc2cccc(OCc3ccccc3)c2)cc1 [Example A55, 3-(4-((3-(Benzyloxy)phenyl)ethynyl)phenyl)propanoic acid]
4790 nM | O=C(O)COc1ccc(C#Cc2cccc(O)c2)cc1 [Example A24, 2-(4-((3-Hydroxyphenyl)ethynyl)phenoxy)ethanoic acid]
115 nM | O=C(O)CCc1ccc(C#Cc2ccnc(Cl)c2)cc1 [Example A22, 3-(4-((2-Chloropyridin-4-yl)ethynyl)phenyl)propanoic acid]
1320 nM | O=C(O)COc1ccc(C#Cc2ccccc2)cc1 [Example A1, 2-(4-(Phenylethynyl)phenoxy)acetic acid]
56.2 nM | O=C(O)CCc1ccc(C#Cc2cc(Cl)nc(Cl)c2)cc1 [Example A33, 3-(4-((2,6-Dichloropyridin-4-yl)ethynyl)phenyl)propanoic acid]
316 nM | Cc1ccc(S(=O)(=O)OCCc2ccccc2C#Cc2ccc(CCC(=O)O)cc2)cc1 [Example A61, 3-(4-((2-(2-(Tosyloxy)ethyl)phenyl)ethynyl)phenyl)propanoic acid]
8130 nM | O=C(O)CCc1ccc(C#Cc2ccccn2)cc1 [Example A20, 3-(4-(Pyridin-2-ylethynyl)phenyl)propanoic acid]
29500 nM | Cc1ccc(C#Cc2ccc(OCC(=O)O)cc2)cc1 [Example A3, 2-(4-(p-Tolylethynyl)phenoxy)acetic acid]
562 nM | Cc1cccc(C#Cc2ccc(OCC(=O)O)cc2)c1 [Example A4, 2-(4-(m-Tolylethynyl)phenoxy)acetic acid]
1910 nM | O=C(O)CCc1ccc(C#Cc2cccc(-c3cn(Cc4ccccc4)nn3)c2)cc1 [Example A19, 3-(4-((3-(1-Benzyl-1H-1,2,3-triazol-4-yl)phenyl)ethynyl)phenyl)propanoic acid]
57.5 nM | O=C(O)CCc1ccc(C#Cc2cccc([N+](=O)[O-])c2)cc1 [Example A12, 3-(4-((3-Nitrophenyl)ethynyl)phenyl)propanoic acid]
3630 nM | Cc1ccccc1C#Cc1ccc(OCC(=O)O)cc1 [Example A2, 2-(4-(o-Tolylethynyl)phenoxy)acetic acid]
3800 nM | Cc1cccc(C#Cc2ccc(CCC(=O)O)cc2)n1 [Example A23, 3-(4-((6-Methylpyridin-2-yl)ethynyl)phenyl)propanoic acid]
145 nM | C=CCOc1cccc(C#Cc2ccc(CCC(=O)O)cc2)c1 [Example A57, 3-(4-((3-(Allyloxy)phenyl)ethynyl)phenyl)propanoic acid]
2750 nM | O=C(O)CCc1ccc(C#Cc2cccnc2)cc1 [Example A21, 3-(4-(Pyridin-3-ylethynyl)phenyl)propanoic acid]
112000 nM | O=C(O)COc1ccc(C#Cc2ccc(CO)cc2)cc1 [Example A26, 2-(4-((4-(Hydroxymethyl)phenyl)ethynyl)phenoxy)ethanoic acid]
77.6 nM | C#CCOc1cccc(C#Cc2ccc(CCC(=O)O)cc2)c1 [Example A56, 3-(4-((3-(Prop-2-ynyloxy)phenyl)ethynyl)phenyl)propanoic acid]
85.1 nM | O=C(O)CCc1ccc(C#Cc2cccc3ccccc23)cc1 [Example A6, 3-(4-(1-Naphthylethynyl)phenyl)propanoic acid]

SMILES | EC50
Cc1ccccc1C#Cc1ccc(C2CC2C(=O)O)cc1 (stereo not drawn) [Example A36, 2-(4-(o-Tolylethynyl)phenyl)cyclopropanecarboxylic acid] | 138 nM
Cc1ccc(C#Cc2ccc(C3CC3C(=O)O)cc2)cc1 (stereo not drawn) [Example A38, 2-(4-(p-Tolylethynyl)phenyl)cyclopropanecarboxylic acid] | 309 nM
O=C(O)[C@@H]1C[C@H]1c1ccc(C#Cc2ccccc2)cc1 (relative stereo) [Example A29, trans-2-(4-(Phenylethynyl)phenyl)cyclopropanecarboxylic acid] | 145 nM
Cc1cccc(C#Cc2ccc(C3CC3C(=O)O)cc2)c1 (stereo not drawn) [Example A37, 2-(4-(m-Tolylethynyl)phenyl)cyclopropanecarboxylic acid] | 93.3 nM
